# From paper PMC12040169 (PLOS Biology, 2025)
# Test: in vitro
# Conditions: human, hela cells, % viability
row,SMILES,"viability at 28.5 h, 10 µM"
1,Cn1ncc2c1CCCN(C(=O)c1ccccc1C(F)(F)F)C2 [CBK282251],84.1%
2,Cn1ncc2c1CCCN(C(=O)c1cccc(C(F)(F)F)c1)C2 [CBK282252],87.3%
3,Cn1cc(CN2C3CCC(C3)[C@@H]2COc2ccc(F)cc2)cn1 (stereo partly drawn) [CBK282257],106%
4,Cc1nn(C)c(C)c1-c1ccc(=O)n(Cc2ccc(F)cc2)n1 [CBK282258],95.3%
5,CCCC(=O)N1CCCCC1c1c(-c2onc(C)c2C)cnn1C (stereo not drawn) [CBK282259],94.7%
6,O=C(CCn1cccn1)N1Cc2ccccc2CC1C1CCOCC1 (stereo not drawn) [CBK282262],83.8%
7,CC(C(=O)NCCc1cn(C)c2ccc(Cl)cc12)N1CCOCC1 (stereo not drawn) [CBK282263],94.6%
8,Cc1ncncc1C(=O)N1CCCCC1CCc1ccccc1 (stereo not drawn) [CBK282264],109%
9,Cc1cc2ncc3c(n2n1)CC1CCC3N1Cc1ccccc1 (stereo not drawn) [CBK282266],104%
10,O=CN1C2CCC1c1cnc3cc(-c4cccc(F)c4)nn3c1C2 (stereo not drawn) [CBK282269],91.9%
11,O=C1NC2=C(C(=O)N(CC3CCCO3)C2)C(c2ccc(F)c(F)c2)N1 (stereo not drawn) [CBK282271],98%
12,O=C(NC1CC1)c1ccc(-n2cccn2)c(C#Cc2ccccn2)c1 [CBK282272],106%
13,Cn1ccnc1C1(O)CCN(C(=O)Nc2ccc(F)cc2)CC1 [CBK282277],97.4%
14,Cn1ccnc1C1(O)CCN(C(=O)Nc2ccccc2Cl)CC1 [CBK282278],89.3%
15,Cn1ccnc1C1(O)CCN(C(=O)Nc2cccc(F)c2)CC1 [CBK282279],109%
16,CCCNC(=O)N1CCC(n2cnc3cccnc32)CC1 [CBK282282],84.3%
17,CN(C)CCn1c([C@@H]2CCCO2)cc2cccnc21 [CBK282288],105%
18,CCCNC(=O)N1CCC(n2c(C)nc3cccnc32)CC1 [CBK282292],88.9%
19,Cc1cccnc1C1(O)CCN(C(=O)NCc2ccccc2)CC1 [CBK282293],88%
20,O=c1c2sccc2nc2n1CCN(Cc1ccc(F)c(F)c1)CC2 [CBK282295],103%
21,Cc1cc2cc(CNCCCN3CCCC3=O)c(=O)[nH]c2cc1C [CBK282296],81.4%
22,CCOC(=O)C1(Cc2ccccc2-c2ccncc2)CCNCC1 [CBK282297],88.8%
23,CCn1c(=O)n(CC(=O)N(C)C)c2cccnc21 [CBK282299],89.1%

row,SMILES,"viability at 28.5 h, 10 µM"
1,O=C(NCCn1nc2c(cc1=O)CCCCC2)c1ccccc1F [CBK282300],89.3%
2,CC(C)(C)OC(=O)N1CCC[C@H]([C@H](O)c2cccs2)C1 [CBK282301],102%
3,C[C@@H](Cn1nnc2ccccc21)NC(=O)Cc1ccccc1F [CBK282305],86.1%
4,Cc1cc(C(=O)NC2CCCc3c2cnn3-c2ccc(F)cc2)on1 (stereo not drawn) [CBK282310],108%
5,O=C1NCC(C2CCN(Cc3ccccc3)CC2)Oc2ccccc21 (stereo not drawn) [CBK282314],85.9%
6,CC(C)C(=O)N1CCC[C@@H](Cn2nc(-c3cccs3)ccc2=O)C1 [CBK282317],96.5%
7,CC(NC(=O)c1ncoc1-c1ccc(F)cc1)c1ccncc1 (stereo not drawn) [CBK282319],100%
8,CC(C)[C@@H](Cn1nc(C2CC2)ccc1=O)NC(=O)c1ccco1 [CBK282321],88.3%
9,O=C(c1ccc(F)cc1)[C@H]1CCCN(C(=O)c2n[nH]c3c2CCC3)C1 [CBK282322],86.7%
10,Fc1cccc(-c2nc3cnccn3c2NCc2ccco2)c1 [CBK282323],93.5%
11,COc1ccc(CNC(=O)[C@H]2C=CCN2C(=O)c2cccs2)cc1 [CBK282325],103%
12,COc1ccc(CNC(=O)[C@H]2C=CCN2C(=O)C2CC2)cc1 [CBK282326],109%
13,Cc1nc2c(c(=O)[nH]1)CN(Cc1c[nH]c3ccccc13)CC2 [CBK282327],102%
14,CCS(=O)(=O)N1CC2C3c4ccccc4C(c4ccccc43)C2C1 (stereo not drawn) [CBK282328],98.5%
15,O=C(C1CCCC1)N1CCc2nc(-c3ccccc3)[nH]c(=O)c2C1 [CBK282331],99%
16,Fc1ccccc1-c1nc2cnccn2c1NCc1cccs1 [CBK282332],90.3%
17,CC(C)[C@@H](Cn1nnc2ccccc21)NC(=O)c1ccco1 [CBK282335],108%
18,C#CCNC(=O)C1CCCN(c2nc3ccccc3n2C)C1 (stereo not drawn) [CBK282336],89.6%
19,COc1ccc(-n2ncc3c2CC(C)(C)CC3NC(=O)C2CC2)cc1 (stereo not drawn) [CBK282337],91.1%
20,Cc1nc2c(c(=O)[nH]1)CCN(Cc1cc(C)n(C3CC3)c1C)C2 [CBK282338],89.2%
21,O=C(C1=Cc2ccccc2OC1)N1CCC(c2ccncc2)CC1 [CBK282339],104%
22,CCn1cc(C(=O)NC2CC3(CCCC3)Oc3ccccc32)c(C)n1 (stereo not drawn) [CBK282340],91.2%
23,CC(C)(C)C(=O)NCCn1nc(-c2cccs2)oc1=O [CBK282344],110%

row,SMILES,"viability at 28.5 h, 10 µM"
1,O=C(NCCn1nc(-c2cccs2)oc1=O)C1CCCC1 [CBK282345],105%
2,CCN(CC)C(=O)Cn1c(=O)n(CC)c2ncccc21 [CBK282347],107%
3,C=CCNC(=O)[C@H]1C=CCN1C(=O)Nc1ccccc1Cl [CBK282348],99%
4,CC(C)C(=O)N1CCC(n2nc(C3CC3)ccc2=O)CC1 [CBK282351],104%
5,O=C(NCc1ccccn1)c1ncoc1-c1ccc(F)cc1 [CBK282352],79.6%
6,O=C(NCc1ccncc1)c1ncoc1-c1ccc(F)cc1 [CBK282354],83.8%
7,O=C(NCCn1cccn1)c1ncoc1-c1ccc(F)cc1 [CBK282355],91.5%
8,CC(NC(=O)c1ncoc1-c1ccc(F)cc1)c1cccnc1 (stereo not drawn) [CBK282358],103%
9,Cc1nn(C)c(C)c1NC(=O)c1ncoc1-c1ccc(F)cc1 [CBK282359],87.7%
10,CCn1nc(C)c(NC(=O)c2ncoc2-c2ccc(F)cc2)c1C [CBK282360],88%
11,CCCn1nc(C)cc1NC(=O)c1ncoc1-c1ccc(F)cc1 [CBK282361],88.7%
12,O=C1NC2=C(C(=O)N(CCN3CCCC3)C2)C(c2cccc(F)c2)N1 (stereo not drawn) [CBK282365],105%
13,Cc1nn(C)cc1C(=O)N1CCCC1c1nc2ccccc2[nH]1 (stereo not drawn) [CBK282371],84.7%
14,Cn1c(N2CCCC(C(N)=O)C2)nc2ccccc21 (stereo not drawn) [CBK282372],105%
15,Cc1ccnn1CCC(=O)N1CCCCC1c1nc2ccccc2[nH]1 (stereo not drawn) [CBK282374],105%
16,C=CCn1c(C)c(CN2CCc3nc(C)[nH]c(=O)c3C2)c2ccccc21 [CBK282375],97.3%
17,C=CCn1cc(CN2CCc3nc(C)[nH]c(=O)c3C2)c2ccccc21 [CBK282376],85.9%
18,CCc1c(C)sc2ncn(C3CCN(C(=O)C(C)C)CC3)c(=O)c12 [CBK282377],81.1%
19,CC1CN(C(=O)c2ncoc2-c2ccc(F)cc2)CC(C)O1 (stereo not drawn) [CBK282379],90%
20,O=C(CC1CCCC1)NCCn1nc(-c2cccs2)oc1=O [CBK282386],87.2%
21,CCOC(=O)Cn1ncc2c3sc(C)cc3n(C)c2c1=O [CBK282388],96.2%
22,O=C(CCn1ncc2ccccc21)N1CCC(c2ccncc2)CC1 [CBK282395],82%
23,CC(C(=O)N1CCC(O)(c2ccccn2)CC1)c1ccccc1 (stereo not drawn) [CBK282396],102%

row,SMILES,"viability at 28.5 h, 10 µM"
1,O=C(c1csc2c1CCCC2)N1CCC(O)(c2ccccn2)CC1 [CBK282397],107%
2,CC(=O)N1CCCN(C(=O)c2ncoc2-c2ccc(F)cc2)CC1 [CBK282398],85.2%
3,O=C(c1ncoc1-c1ccc(F)cc1)N1CCN2CCCC2C1 (stereo not drawn) [CBK282399],90.1%
4,C=CCNC(=O)C1CN(C)CC12CCc1ccccc1C(=O)N2 (stereo not drawn) [CBK282401],83%
5,O=C(NCCCn1ccnc1)c1ncoc1-c1cccs1 [CBK282404],92.7%
6,Cc1sc2nc(C(C)C)n(C3CCNCC3)c(=O)c2c1C [CBK282407],100%
7,CC(NC(=O)c1ncoc1-c1ccccc1Cl)c1ccccn1 (stereo not drawn) [CBK282409],94.8%
8,Cc1c(C(=O)N2CCC(c3ccncc3)CC2)oc2ccccc12 [CBK282413],109%
9,Cc1nc2c(c(=O)[nH]1)CN(C1CCCCC1)CC2 [CBK282416],82.2%
10,Cc1cccc(-c2ocnc2C(=O)NCCCn2ccnc2)c1 [CBK282418],80.1%
11,CCn1c(N2CCCC(C(=O)NC3CC3)C2)nc2ccccc21 (stereo not drawn) [CBK282419],106%
12,O=C(NC1CC2(CCCC2)Oc2ccccc21)C1CCCO1 (stereo not drawn) [CBK282420],110%
13,O=C(C1CCCC1)N1CCC(n2nc(-c3cccs3)oc2=O)CC1 [CBK282424],87.5%
14,O=C(c1cc(C2CC2)on1)N1CCn2cc(C(F)(F)F)nc2C1 [CBK282425],85.4%
15,Cc1nc2cccnc2n1C1CCN(C(=O)C(C)(C)C)CC1 [CBK282426],89.2%
16,Cc1cccc(-c2ocnc2C(=O)NC(C)c2ccccn2)c1 (stereo not drawn) [CBK282427],87.4%
17,Cc1cc(C(=O)N2CCn3cc(C(F)(F)F)nc3C2)on1 [CBK282430],101%
18,Cc1noc(C)c1C(=O)N1CCn2cc(C(F)(F)F)nc2C1 [CBK282431],90.2%
19,COc1ccc2cc3c(nc2c1)OC(=O)N(CC1CC1)C3 [CBK282432],86.8%
20,O=C(CN1C(=O)[C@@H]2CCCN2C(=O)c2ccccc21)N1CCCC1 [CBK282434],104%
21,Cc1csc(C(Cc2ccsc2)NCC2=CCCOC2)n1 (stereo not drawn) [CBK282439],101%
22,CC(Cc1cccs1)NC(=O)c1cccc(-n2cnnc2)c1 (stereo not drawn) [CBK282443],102%
23,Cc1ccc2n1CCN(C(=O)c1cccc(-n3cnnc3)c1)C2C(C)C (stereo not drawn) [CBK282444],105%

# Same assay, conditions: human, hela cells, % viability, bulk resorufin, single well
row,SMILES,"viability at 28.5 h, 10 µM"
1,CC[C@H](N)Cn1nc(-c2cccs2)oc1=O [CBK282393],82.6%
